Data: paper PMC9230784, “Development of a Novel Class of Pyridazinone Derivatives as Selective MAO-B Inhibitors” (Molecules, 2022)
Entries after “also recorded” stand apart in the source; their conditions may differ. Read-outs that look alike come from different tables or passages of the source.

Key:
Recombinant human MAO-A = target: T1, Recombinant human MAO-A (Homo sapiens, UniProt P21397); experiment: biochemical; details: for remaining activity at 10 µM: 10 µM compound, mean ± standard error of duplicate or triple studies, read-out: Residual Activity at 10 µM (%) MAO-A
T1 construct: purchased Sigma-Aldrich (St. Louis, MO, USA)
T1 sequence (P21397 1-527): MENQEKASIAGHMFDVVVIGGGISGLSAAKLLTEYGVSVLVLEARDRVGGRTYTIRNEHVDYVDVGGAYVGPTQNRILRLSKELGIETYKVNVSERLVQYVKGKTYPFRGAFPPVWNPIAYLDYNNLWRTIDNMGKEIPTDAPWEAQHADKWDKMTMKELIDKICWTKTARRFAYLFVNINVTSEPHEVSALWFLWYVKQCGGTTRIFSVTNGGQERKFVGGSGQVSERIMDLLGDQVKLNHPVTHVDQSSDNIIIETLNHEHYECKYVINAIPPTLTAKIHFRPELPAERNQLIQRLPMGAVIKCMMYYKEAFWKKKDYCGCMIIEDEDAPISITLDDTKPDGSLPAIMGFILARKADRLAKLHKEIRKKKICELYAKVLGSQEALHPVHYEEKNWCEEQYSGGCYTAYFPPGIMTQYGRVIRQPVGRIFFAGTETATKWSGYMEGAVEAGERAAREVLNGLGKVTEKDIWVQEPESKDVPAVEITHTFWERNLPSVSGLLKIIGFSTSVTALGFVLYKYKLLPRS
Experimental: (§1) The IC50 values were determined by measuring the residual activity at different concentrations of the compounds and by using GraphPad Prism software 5.0. […] BACE1 inhibitory activities were tested by the BACE1 activity detection kit. The assay method was described previously. Recombinant human MAO-A and MAO-B, AChE from Electrophorus electricus, BChE from equine serum, BACE1, and their substrates and reference inhibitors were purchased from Sigma-Aldrich (St. Louis, MO, USA).
(§2) Lineweaver–Burk plots were used to examine the inhibition patterns, and secondary plots were used to calculate the Ki values with three inhibitor dosages.

MAO-B [1] = target: T2, MAO-B (Homo sapiens, UniProt P27338); experiment: biochemical; type: biochemical; details: for remaining activity at 10 µM: 10 µM compound, mean ± standard error of duplicate or triple studies, read-out: Residual Activity at 10 µM (%) MAO-B; for SI (selectivity index for MAO-B compared with MAO-A): MAO-B versus MAO-A
T2 construct: purchased Sigma-Aldrich (St. Louis, MO, USA)
T2 sequence (P27338 1-520): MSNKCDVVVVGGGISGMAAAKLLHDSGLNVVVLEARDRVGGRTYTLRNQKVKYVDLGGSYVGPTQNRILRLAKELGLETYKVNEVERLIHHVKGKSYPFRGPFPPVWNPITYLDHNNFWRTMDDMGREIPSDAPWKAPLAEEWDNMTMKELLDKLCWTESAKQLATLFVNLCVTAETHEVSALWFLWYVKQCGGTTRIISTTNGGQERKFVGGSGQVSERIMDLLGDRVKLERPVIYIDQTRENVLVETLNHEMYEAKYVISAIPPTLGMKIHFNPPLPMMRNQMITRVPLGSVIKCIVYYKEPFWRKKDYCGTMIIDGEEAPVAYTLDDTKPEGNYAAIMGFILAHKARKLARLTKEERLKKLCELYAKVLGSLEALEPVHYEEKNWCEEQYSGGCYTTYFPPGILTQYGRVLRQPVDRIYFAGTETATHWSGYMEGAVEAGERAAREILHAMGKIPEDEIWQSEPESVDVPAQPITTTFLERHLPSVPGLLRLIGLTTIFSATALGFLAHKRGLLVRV
Experimental: as §1, with “USA). […]” for “USA).”

[2] = for Prediction (BBB permeation class): PAMPA-BBB; for BBB permeation in words: PAMPA
in vitro = details: PAMPA
MAO-B [3] = target: T2, MAO-B; experiment: Kinetic study, Lineweaver–Burk and secondary plots; type: biochemical; details: for Inhibition type for MAO-B: Lineweaver–Burk plots
Source text: Five different substrate concentrations were used in the kinetics.
as §2

MAO-B [4] = target: T2, MAO-B; experiment: Inhibition reversibility by dialysis; type: biochemical; details: for Reversibility of MAO-B inhibition: dialysis, AU versus AD; for Relative activity of dialyzed (AD) sample / Relative activity of undialyzed (AU) sample: preincubation 30 min at ~2 × IC50
Source text: The relative activity of undialyzed (AU) as well as dialyzed (AD) samples were compared to establish reversibility profiles.
To determine reversibility patterns, the activities of dialyzed (AD) and undialyzed (AU) specimens were compared.

[5] = PAMPA-BBB; cited from earlier work
[6] = kynuramine 0.06 mM, highest concentration 40 µM, read-out: IC50 (µM) MAO-A
[7] = benzylamine 0.3 mM, highest concentration 40 µM, read-out: IC50 (µM) MAO-B

Row | Compound | remaining activity at 10 µM (Recombinant human MAO-A) [%] | remaining activity at 10 µM (MAO-B [1]) [%] | IC50 (Recombinant human MAO-A; [6]) [µM] | SI (selectivity index for MAO-B compared with MAO-A) (MAO-B [1]) | IC50 (MAO-B [1]; [7]) [µM] | also measured
1 | O=C(Cn1nc(N2CCOCC2)ccc1=O)NN=Cc1ccc(F)cc1 [TR15] | 85.6 ± 1.04 | 12.5 ± 3.54 | – | – | – | IC50 (Recombinant human MAO-A): > 40 µM; IC50 (MAO-B [1]): 0.43 ± 0.05 µM
2 | O=C(Cn1nc(N2CCN(c3cccc(C(F)(F)F)c3)CC2)ccc1=O)NN=Cc1ccc(Br)cc1 [TR13] | 74.2 ± 6.43 | 100 ± 5.43 | 31 ± 4.33 | <0.78 | > 40 | –
3 | CC(=O)[C@H]1CC[C@H]2[C@@H]3CCC4=CC(=O)CC[C@]4(C)[C@H]3CC[C@]12C [Progesterone, reference compound] | – | – | – | – | – | Prediction (BBB permeation class) [2]: CNS+ (CNS+, Pe (10^−6 cm/s) >4, good BBB permeable)
4 | O=C(Cn1nc(N2CCOCC2)ccc1=O)NN=Cc1ccccc1 [TR14] | 97.47 ± 0.71 | 107 ± 2.01 | > 40 | – | > 40 | –
5 | COc1ccc(C=NNC(=O)Cn2nc(N3CCN(c4cccc(C(F)(F)F)c4)CC3)ccc2=O)cc1 [TR10] | 56 ± 2.26 | 91.9 ± 7.09 | 13.3 ± 1.81 | <0.33 | > 40 | –
6 | COc1cccc(N2CCN(c3ccc(=O)n(CC(=O)NN=Cc4ccc(Cl)cc4)n3)CC2)c1 [TR2] | 65.8 ± 0.66 | -4.37 ± 4.13 | – | – | – | Papp (in vitro): 9.33 ± 0.33 ×10⁻⁶ cm/s; BBB permeation in words [2]: tendency to traverse the blood–brain barrier; also recorded: good CNS permeabilities; Prediction (BBB permeation class) [2]: CNS+ (CNS+, Pe (10^−6 cm/s) >4, good BBB permeable); Ki (MAO-B [3]): 230 ± 4 nM; Inhibition type for MAO-B (MAO-B [3]): competitive inhibitors; IC50 (Recombinant human MAO-A): 22.9 ± 0.24 µM; IC50 (MAO-B [1]): 0.27 ± 0.02 µM; Fold increase of MAO-B inhibitory potency compared to the basic structure TR1 (MAO-B [1]; versus TR1): 148.1 fold; Reversibility of MAO-B inhibition (MAO-B [4]): reversible inhibitors; Relative activity of dialyzed (AD) sample (MAO-B [4]): 75.0%; Relative activity of undialyzed (AU) sample (MAO-B [4]): 28.0%
7 | O=C(Cn1nc(N2CCN(c3cccc(C(F)(F)F)c3)CC2)ccc1=O)NN=Cc1ccc(Cl)cc1 [TR8] | 52.9 ± 0.82 | 69.1 ± 0.95 | 12 ± 1.75 | 0.60 | 20 | –
8 | COc1ccc(C=NNC(=O)Cn2nc(N3CCN(c4cccc(OC)c4)CC3)ccc2=O)cc1 [TR4] | 61 ± 3.54 | 88.6 ± 8.61 | 16.5 ± 1.66 | <0.41 | > 40 | –
9 | O=C(Cn1nc(N2CCOCC2)ccc1=O)NN=Cc1ccc(Cl)cc1 [TR16] | 85 ± 3.08 | 13.1 ± 0.64 | – | – | – | Papp (in vitro): 10.6 ± 0.26 ×10⁻⁶ cm/s; BBB permeation in words [2]: tendency to traverse the blood–brain barrier; also recorded: good CNS permeabilities; Prediction (BBB permeation class) [2]: CNS+ (CNS+, Pe (10^−6 cm/s) >4, good BBB permeable); Ki (MAO-B [3]): 149 ± 16 nM; Inhibition type for MAO-B (MAO-B [3]): competitive inhibitors; IC50 (Recombinant human MAO-A): > 40 µM; IC50 (MAO-B [1]): 0.17 ± 0.04 µM; Fold higher IC50 for MAO-B than TR2 (MAO-B [1]; versus TR2): 1.59 fold; Times higher MAO-B inhibitory activity over the basic structure TR14 (MAO-B [1]; versus TR14): 235.3 times; Times higher MAO-B inhibitory activity over TR15 (MAO-B [1]; versus TR15): 2.5 times; Reversibility of MAO-B inhibition (MAO-B [4]): reversible inhibitors; Relative activity of dialyzed (AD) sample (MAO-B [4]): 73.4%; Relative activity of undialyzed (AU) sample (MAO-B [4]): 31.8%
10 | COc1cccc(N2CCN(c3ccc(=O)n(CC(=O)NN=Cc4ccc(Br)cc4)n3)CC2)c1 [TR6] | 51.7 ± 4.55 | 70.2 ± 3.8 | 12.33 ± 0.11 | 0.81 | 15.1 ± 0.18 | –
11 | NCCc1ccc(O)c(O)c1 [Dopamine, reference compound] | – | – | – | – | – | Prediction (BBB permeation class) [2]: CNS- (CNS-: Pe (10^−6 cm/s) <2, less BBB permeable); Bibliography Pe (×10^−6 cm/s) [5]: 0.2 ×10^−6 cm/s
12 | O=C(Cn1nc(N2CCN(c3cccc(C(F)(F)F)c3)CC2)ccc1=O)NN=Cc1ccccc1 [TR7] | 55.4 ± 0.84 | 90.7 ± 6.64 | 14.4 ± 3.55 | <0.36 | > 40 | –
13 | O=C(Cn1nc(N2CCN(c3cccc(C(F)(F)F)c3)CC2)ccc1=O)NN=Cc1ccc(F)cc1 [TR9] | 72.28 ± 0.4 | 46.5 ± 4.93 | 17.1 ± 0.21 | 17.08 | 1 ± 0.15 | –
14 | Cc1ccc(C=NNC(=O)Cn2nc(N3CCN(c4cccc(C(F)(F)F)c4)CC3)ccc2=O)cc1 [TR11] | 55.6 ± 2.28 | 83.87 ± 0.56 | 18.5 ± 5.83 | 0.57 | 32 ± 1.21 | –
15 | CN(C)c1ccc(C=NNC(=O)Cn2nc(N3CCN(c4cccc(C(F)(F)F)c4)CC3)ccc2=O)cc1 [TR12] | 52.5 ± 1.77 | 85.3 ± 1.59 | 14.7 ± 2.96 | <0.37 | > 40 | –
16 | CCn1cc(C(=O)O)c(=O)c2cc(F)c(N3CCNC(C)C3)c(F)c21 (stereo not shown) [Lomefloxacin, reference compound] | – | – | – | – | – | Prediction (BBB permeation class) [2]: CNS- (CNS-: Pe (10^−6 cm/s) <2, less BBB permeable)
17 | COc1cccc(N2CCN(c3ccc(=O)n(CC(=O)NN=Cc4ccc(F)cc4)n3)CC2)c1 [TR3] | 71.66 ± 0.71 | 20.1 ± 1.15 | 19.7 ± 0.3 | 9.31 | 2.11 ± 0.51 | –
18 | COc1cccc(N2CCN(c3ccc(=O)n(CC(=O)NN=Cc4ccc(C)cc4)n3)CC2)c1 [TR5] | 72.8 ± 1.02 | 45.6 ± 2.56 | 18.19 ± 0.09 | 4.12 | 4.42 ± 0.23 | –
19 | COc1cccc(N2CCN(c3ccc(=O)n(CC(=O)NN=Cc4ccccc4)n3)CC2)c1 [TR1] | 82 ± 1.2 | 80.5 ± 1.01 | 17.3 ± 1.2 | <0.43 | > 40 | –
